Experimental data from patent US20210077625A1, “RAY TRACING TECHNIQUE FOR WIRELESS CHANNEL MEASUREMENTS” (Cohere Technologies, Inc., priority 2017, published 2021).

Key:
LM36R xenograft tumor = assay: Gene array / microarray RNA analysis of LM36R xenograft tumors; type: in vivo
Procedure: Gene array was performed on all tumors. […] By varying the delivery process of a single drug, one might be able to prevent resistance.
RNA Extraction and QC: RNA was extracted using the Qiagen miRNEasy™ kit with on column DNAse treatment. Tissue was lysed and homogenized in Qiazol™ with a rotor-stator probe homogenizer for 40 seconds or until fully disrupted (1 ml Qiazol™ per 100 mg of tissue). RNA was eluted in 50 ul nuclease free water. One microliter was used to determine OD (optical density) values on a Nanodrop 1000. One microliter was used to assess sample profiles on the Agilent 2100 using the RNA 6000 Nano assay. Total RNA (250 ng) was amplified and labeled using the ThermoFisher Scientific Illuina™ TotalPrep™ RNA Amplification kit. Labeled cRNA was hybridized to Illumina HT12™ bead array. Image acquisition and data extraction were performed.

[1] = test system: LM36R human melanoma xenograft; assay: Tumor growth of vemurafenib-resistant LM36R melanoma xenograft in nude mice; type: in vivo, mouse; settings: nude male mice, 5 mg of drug/kg per injection, bi-weekly tail vein, 4 weeks, n=5 per group; p-value 0.048 at week 4
Procedure: Vemurafenib-resistant LM36R human melanoma cells were inoculated (5.0×10^5 cells/mouse) into the right flank of athymic Nu/Nu nude male mice (Cr1:NU-Foxn1^nu strain code 088)) n=5 per group, and progression of tumor was recorded using the volume model of length×(width^2)×0.52. Mice were split into four groups consisting of a control (empty HANP), free Tris DBA-Pd, HANP with Tris DBA-Pd, and HANP with Tris DBA-Pd and αIGF1R antibody. Free Tris DBA-Pd was first dissolved in DMSO and then mixed with Kolliphor EL™. At last, the mixture was diluted by H2O before injection at concentration of 1 mg/mL of DBA. The ratio of DMSO, Kolliphor EL™ and H2O was controlled as 1:2:7 (v/v). The treatments were administered through bi-weekly tail vein injections over the course of 4 weeks (5 mg of drug/kg per injection). Tumor samples were analyzed for CD44 (hyaluronate receptor) expression by immunohistochemistry.

[2] = Dispersion, solubility and stability in water, FBS, cell culture media; type: physicochemical; settings: for solubility (general statement): water / not specified
melanoma = settings: reported in literature; cited from earlier work
[3] = molecular target: T1, N-myristoyltransferase 1 (NMT1) (Homo sapiens, UniProt P30419); settings: reported in literature; cited from earlier work
T1 sequence (P30419 1-496): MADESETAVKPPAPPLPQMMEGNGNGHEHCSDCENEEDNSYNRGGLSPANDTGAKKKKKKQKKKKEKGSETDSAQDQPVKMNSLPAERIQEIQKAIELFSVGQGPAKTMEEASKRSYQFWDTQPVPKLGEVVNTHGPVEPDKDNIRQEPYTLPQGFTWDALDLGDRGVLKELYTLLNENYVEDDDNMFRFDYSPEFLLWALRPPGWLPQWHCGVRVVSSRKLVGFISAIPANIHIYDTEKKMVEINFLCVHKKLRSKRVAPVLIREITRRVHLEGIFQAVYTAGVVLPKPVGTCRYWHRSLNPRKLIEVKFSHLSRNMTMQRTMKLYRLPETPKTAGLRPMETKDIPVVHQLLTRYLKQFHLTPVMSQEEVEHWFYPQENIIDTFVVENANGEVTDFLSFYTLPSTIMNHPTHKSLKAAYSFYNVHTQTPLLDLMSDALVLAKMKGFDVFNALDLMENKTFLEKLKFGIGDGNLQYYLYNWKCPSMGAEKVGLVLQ

[4] = at 25° C.; cited from earlier work

Compound: Tris (dibenzylideneacetone) dipalladium [Tris DBA-Pd]
- SCG2 (secretogranin 2) gene expression (LM36R xenograft tumor): downregulated
- inhibition of LM36R tumor growth (tumor volume) [1]: showed efficacy
- solubility (general statement) [2]: Water-insoluble
- solubility (general statement) ([2]; listed as Tris (dibenzylideneacetone) dipalladium): poor solubility
- behaviour in water, FBS, and cell culture media ([2]; water, FBS, cell culture media): immediately precipitated
- efficacy against melanoma in vitro and preclinical models of pancreatic cancer, chronic lymphocytic leukemia, multiple myeloma (melanoma): efficacious
- activity against the enzyme N-myristoyltransferase 1 [3]: activity

Compound: CCCCCCCC [octane]
- percent solubility in water by weight [4]: 0.63×10^−4 % w/w
